{"source": "PubChem BioAssay AID1259407", "about": "(Chemical Carcinogenesis Research Information System (CCRIS), 2018)", "test_system": "CCRIS mutagenicity, Ames/micronucleus/aberration tests", "test": "CCRIS mutagenicity studies", "key": {"[1]": {"details": "Test System: AMES SALMONELLA TYPHIMURIUM, Strain/Indicator: TA98, Metabolic Activation: NONE, Method: PREINCUBATION"}, "[2]": {"details": "Test System: AMES SALMONELLA TYPHIMURIUM, Strain/Indicator: TA98, Metabolic Activation: RAT, LIVER, S-9, PCB, Method: PREINCUBATION"}, "[3]": {"details": "Test System: AMES SALMONELLA TYPHIMURIUM, Strain/Indicator: TA100, Metabolic Activation: NONE, Method: PREINCUBATION"}, "[4]": {"details": "Test System: AMES SALMONELLA TYPHIMURIUM, Strain/Indicator: TA100, Metabolic Activation: RAT, LIVER, S-9, PCB, Method: PREINCUBATION"}}, "note": "Activity calls are given as the source filed them. How the calls were made is not given here.", "data": [{"molecule": "CCN(CC)CCCN", "values": [{"measurement": "mutagenic call", "setting": "[1]", "value": "inactive; negative"}, {"measurement": "mutagenic call", "setting": "[2]", "value": "inactive; negative"}, {"measurement": "mutagenic call", "setting": "[3]", "value": "inactive; negative"}, {"measurement": "mutagenic call", "setting": "[4]", "value": "inactive; negative"}]}, {"molecule": "c1ccc2cc3c(cc2c1)c1cccc2ccc4cccc3c4c21", "values": [{"measurement": "mutagenic call", "setting": "Test System: HUMAN H1A1V2 CELLS, Strain/Indicator: TK LOCUS, Metabolic Activation: NONE, Method: SUSPENSION/PLATE", "value": "active; positive"}]}, {"molecule": "Cc1ccccc1N=Nc1ccc(N(C)C)cc1", "values": [{"measurement": "mutagenic call", "setting": "Test System: AMES SALMONELLA TYPHIMURIUM, Strain/Indicator: TA98, Metabolic Activation: HAMSTER, LIVER, S-9, AROCLOR 1254 (10%), Method: PREINCUBATION", "value": "inactive; negative"}, {"measurement": "mutagenic call", "setting": "[1]", "value": "inactive; negative"}, {"measurement": "mutagenic call", "setting": "Test System: AMES SALMONELLA TYPHIMURIUM, Strain/Indicator: TA98, Metabolic Activation: RAT, LIVER, S-9, AROCLOR 1254 (10%), Method: PREINCUBATION", "value": "inactive; negative"}, {"measurement": "mutagenic call", "setting": "Test System: AMES SALMONELLA TYPHIMURIUM, Strain/Indicator: TA100, Metabolic Activation: HAMSTER, LIVER, S-9, AROCLOR 1254 (10%), Method: PREINCUBATION", "value": "inactive; negative"}, {"measurement": "mutagenic call", "setting": "[3]", "value": "inactive; negative"}, {"measurement": "mutagenic call", "setting": "Test System: AMES SALMONELLA TYPHIMURIUM, Strain/Indicator: TA100, Metabolic Activation: RAT, LIVER, S-9, AROCLOR 1254 (10%), Method: PREINCUBATION", "value": "inactive; negative"}, {"measurement": "mutagenic call", "setting": "Test System: AMES SALMONELLA TYPHIMURIUM, Strain/Indicator: TA1535, Metabolic Activation: HAMSTER, LIVER, S-9, AROCLOR 1254 (10%), Method: PREINCUBATION", "value": "inactive; negative"}, {"measurement": "mutagenic call", "setting": "Test System: AMES SALMONELLA TYPHIMURIUM, Strain/Indicator: TA1535, Metabolic Activation: NONE, Method: PREINCUBATION", "value": "inactive; negative"}, {"measurement": "mutagenic call", "setting": "Test System: AMES SALMONELLA TYPHIMURIUM, Strain/Indicator: TA1535, Metabolic Activation: RAT, LIVER, S-9, AROCLOR 1254 (10%), Method: PREINCUBATION", "value": "inactive; negative"}, {"measurement": "mutagenic call", "setting": "Test System: AMES SALMONELLA TYPHIMURIUM, Strain/Indicator: TA1537, Metabolic Activation: HAMSTER, LIVER, S-9, AROCLOR 1254 (10%), Method: PREINCUBATION", "value": "inactive; negative"}, {"measurement": "mutagenic call", "setting": "Test System: AMES SALMONELLA TYPHIMURIUM, Strain/Indicator: TA1537, Metabolic Activation: NONE, Method: PREINCUBATION", "value": "inactive; negative"}, {"measurement": "mutagenic call", "setting": "Test System: AMES SALMONELLA TYPHIMURIUM, Strain/Indicator: TA1537, Metabolic Activation: RAT, LIVER, S-9, AROCLOR 1254 (10%), Method: PREINCUBATION", "value": "inactive; negative"}, {"measurement": "mutagenic call", "setting": "Test System: E. COLI, Strain/Indicator: WP2 UVRA, Metabolic Activation: HAMSTER, LIVER, S-9, AROCLOR 1254, Method: STANDARD PLATE", "value": "inactive; negative"}, {"measurement": "mutagenic call", "setting": "Test System: E. COLI, Strain/Indicator: WP2 UVRA, Metabolic Activation: HAMSTER, LIVER, S-9, Method: STANDARD PLATE", "value": "inactive; negative"}, {"measurement": "mutagenic call", "setting": "Test System: E. COLI, Strain/Indicator: WP2 UVRA, Metabolic Activation: MOUSE, LIVER, S-9, AROCLOR 1254, Method: STANDARD PLATE", "value": "inactive; negative"}, {"measurement": "mutagenic call", "setting": "Test System: E. COLI, Strain/Indicator: WP2 UVRA, Metabolic Activation: MOUSE, LIVER, S-9, Method: STANDARD PLATE", "value": "inactive; negative"}, {"measurement": "mutagenic call", "setting": "Test System: E. COLI, Strain/Indicator: WP2 UVRA, Metabolic Activation: NONE, Method: STANDARD PLATE", "value": "inactive; negative"}, {"measurement": "mutagenic call", "setting": "Test System: E. COLI, Strain/Indicator: WP2 UVRA, Metabolic Activation: RAT, LIVER, S-9, AROCLOR 1254, Method: STANDARD PLATE", "value": "inactive; negative"}, {"measurement": "mutagenic call", "setting": "Test System: E. COLI, Strain/Indicator: WP2 UVRA, Metabolic Activation: RAT, LIVER, S-9, Method: STANDARD PLATE", "value": "inactive; negative"}]}, {"molecule": "c1cnc2cnncc2c1", "values": [{"measurement": "mutagenic call", "setting": "[1]", "value": "inactive; negative"}, {"measurement": "mutagenic call", "setting": "[2]", "value": "inactive; negative"}, {"measurement": "mutagenic call", "setting": "[3]", "value": "inactive; negative"}, {"measurement": "mutagenic call", "setting": "[4]", "value": "inactive; negative"}]}, {"molecule": "O=C(O)CCCC[C@@H]1SC[C@@H]2NC(=O)N[C@@H]21", "values": [{"measurement": "mutagenic call", "setting": "Test System: AMES SALMONELLA TYPHIMURIUM, Strain/Indicator: TA98, Metabolic Activation: NONE, Method: STANDARD PLATE", "value": "inactive; negative"}, {"measurement": "mutagenic call", "setting": "Test System: AMES SALMONELLA TYPHIMURIUM, Strain/Indicator: TA98, Metabolic Activation: RAT, LIVER, S-9, AROCLOR 1254, Method: STANDARD PLATE", "value": "inactive; negative"}, {"measurement": "mutagenic call", "setting": "Test System: AMES SALMONELLA TYPHIMURIUM, Strain/Indicator: TA100, Metabolic Activation: NONE, Method: STANDARD PLATE", "value": "inactive; negative"}, {"measurement": "mutagenic call", "setting": "Test System: AMES SALMONELLA TYPHIMURIUM, Strain/Indicator: TA100, Metabolic Activation: RAT, LIVER, S-9, AROCLOR 1254, Method: STANDARD PLATE", "value": "inactive; negative"}, {"measurement": "mutagenic call", "setting": "Test System: AMES SALMONELLA TYPHIMURIUM, Strain/Indicator: TA1535, Metabolic Activation: NONE, Method: STANDARD PLATE", "value": "inactive; negative"}, {"measurement": "mutagenic call", "setting": "Test System: AMES SALMONELLA TYPHIMURIUM, Strain/Indicator: TA1535, Metabolic Activation: RAT, LIVER, S-9, AROCLOR 1254, Method: STANDARD PLATE", "value": "inactive; negative"}, {"measurement": "mutagenic call", "setting": "Test System: AMES SALMONELLA TYPHIMURIUM, Strain/Indicator: TA1537, Metabolic Activation: NONE, Method: STANDARD PLATE", "value": "inactive; negative"}, {"measurement": "mutagenic call", "setting": "Test System: AMES SALMONELLA TYPHIMURIUM, Strain/Indicator: TA1537, Metabolic Activation: RAT, LIVER, S-9, AROCLOR 1254, Method: STANDARD PLATE", "value": "inactive; negative"}, {"measurement": "mutagenic call", "setting": "Test System: AMES SALMONELLA TYPHIMURIUM, Strain/Indicator: TA1538, Metabolic Activation: NONE, Method: STANDARD PLATE", "value": "inactive; negative"}, {"measurement": "mutagenic call", "setting": "Test System: AMES SALMONELLA TYPHIMURIUM, Strain/Indicator: TA1538, Metabolic Activation: RAT, LIVER, S-9, AROCLOR 1254, Method: STANDARD PLATE", "value": "inactive; negative"}, {"measurement": "mutagenic call", "setting": "Test System: E. COLI, Strain/Indicator: WP2, Metabolic Activation: NONE, Method: STANDARD PLATE", "value": "inactive; negative"}, {"measurement": "mutagenic call", "setting": "Test System: E. COLI, Strain/Indicator: WP2, Metabolic Activation: RAT, LIVER, S-9, AROCLOR 1254, Method: STANDARD PLATE", "value": "inactive; negative"}]}]}
